For one compound, EC50 results are on record in article PMC10470178, “Long-acting lenacapavir protects macaques against intravenous challenge with simian-tropic HIV” (eBioMedicine, 2023).

One assay deals with HIV-1 NL4-3. Briefly: Multi-round viral replication assay in SupT1-CCR5 cells, HIV-1 NL4-3. The conditions noted are these: Human immunodeficiency virus 1, NL43, 168 h, supernatant vRNA 7 days post-infection, mean ± SD of three independent experiments, read-out: mean EC50 against HIV-1 NL4-3. In kind it is cell-based. As to the method: (§1) Infectious stocks of stHIV-A19,[23] HIV-1 NL4-3, and SIVmac239 were produced in HEK-293T (RRID: CVCL_1926) cells transfected with full-length viral genome plasmids using the TransIT HEK-293 transfection reagent (Mirus Bio) according to the manufacturer’s instructions. Virus stock infectious titres were determined on TZM-bl reporter cells (RRID: CVCL_B478) as previously described.[26] For experiments using SupT1-CCR5 target cells (RRID: CVCL_X633),[27] cultures were maintained in RPMI 1640 medium supplemented with 10% foetal bovine serum (FBS), 2 mM glutamine, 100 U/ml penicillin, and 100 μg/ml streptomycin. […] Cells were then washed three times to remove input virus, counted, and cultured in triplicate in growth media containing serial threefold dilutions of LEN or no LEN (control). […] Culture supernatants were collected 7 days post-inoculation, clarified by centrifugation, and stored at −80 °C for later quantification of vRNA by quantitative reverse transcription polymerase chain reaction (qRT-PCR). […] The stHIV-A19 stock was quantified with a SYBR Green-based qPCR-based product-enhanced RT (PERT) assay using a purified reverse transcriptase (RT) protein standard, as previously described.[28] […] After 7 days, the virus in culture supernatants was quantified using the PERT assay. […]

The subject of another assay is stHIV-A19. The assay can be described thus: Multi-round viral replication assay in SupT1-CCR5 cells, stHIV-A19. In kind it is cell-based, simian-tropic HIV-1. The settings on record: Human immunodeficiency virus 1, 168 h, supernatant vRNA 7 days post-infection, mean ± SD of three independent experiments, read-out: mean EC50 against stHIV-A19. As to the method: as §1

`CC(C)(C#Cc1ccc(-c2ccc(Cl)c3c(NS(C)(=O)=O)nn(CC(F)(F)F)c23)c([C@H](Cc2cc(F)cc(F)c2)NC(=O)Cn2nc(C(F)(F)F)c3c2C(F)(F)[C@@H]2C[C@H]32)n1)S(C)(=O)=O` [LEN, Lenacapavir]: the concentration giving a half-maximal response (EC50) in the assay with HIV-1 NL4-3 stood at 0.086 nM; in the assay on stHIV-A19, 0.091 nM.

For orientation: EC50 means the concentration needed to bring the measured effect to its halfway point.
